# Like-named read-outs stand apart in the source and are kept apart here.
# Assays:
# [1] = system: Escherichia coli strain ECM6704 (vector pUCP24 alone); experiment: microbe, parasite or virus in culture; assay type: cell-based; conditions: E. coli ECM6704, vector alone, cation-adjusted Mueller-Hinton broth, 18 h, 35° C.
# Experimental: (§1) MICs were recorded after an eighteen-hour growth at 35° C. […] In Table 1, all genes were cloned into vector pUCP24 and introduced into Escherichia coli strain.
# [2] = system: Escherichia coli strain ECM6701 expressing KPC-2 β-lactamase; experiment: microbe, parasite or virus in culture; conditions: 18 h
# Experimental: as §1
# [3] = system: Escherichia coli strain ECM6702 expressing KPC-3 β-lactamase; experiment: microbe, parasite or virus in culture; conditions: 18 h
# Experimental: as §1
# [4] = system: Enterobacter cloacae ECL1026 (KPC-2, TEM-1); experiment: microbe, parasite or virus in culture; assay type: cell-based; conditions: 18 h
# [5] = system: Enterobacter cloacae ECL1036 (KPC-3, TEM-1); experiment: microbe, parasite or virus in culture; assay type: cell-based; conditions: 18 h
# [6] = system: Enterobacter cloacae ECL1055 (KPC-3, TEM); experiment: MIC, CLSI broth microdilution, clinical strain ECL1055; assay type: cell-based; conditions: clinical strain ECL1055, Enterobacter loacae, 18 h, 35° C.
# [7] = system: Citrobacter freundii CF1012 (KPC-2); experiment: microbe, parasite or virus in culture; conditions: 18 h
# [8] = system: Escherichia coli EC1007 (KPC-3); experiment: microbe, parasite or virus in culture; conditions: 18 h
# [9] = system: Klebsiella pneumoniae KP1008 (KPC-2); experiment: microbe, parasite or virus in culture; conditions: 18 h
# [10] = system: Citrobacter freundii CF1012 (KPC-2); conditions: clinical strain CF1012, Citrobacter freundii, 18 h, 35° C.
# [11] = system: Escherichia coli EC1007 (KPC-3); conditions: clinical strain EC1007, Escherichia coli, 18 h, 35° C.
# [12] = system: Klebsiella pneumoniae KP1008 (KPC-2); conditions: clinical strain KP1008, Klebsiella pneumoniae, 18 h, 35° C.
# [13] = biological target: purified KPC-2 β-lactamase (Klebsiella pneumoniae, UniProt Q9F663); experiment: Kinetics of monobactam hydrolysis by purified KPC-2
# Experimental: The optical density was checked every 2 minutes for 2 hours. […] Vmax and Km values were calculated using “Prizm” software (“GraphPad”). Kcat values were calculated using the equation kcat=Vmax/[enzyme concentration].
# [14] = Escherichia coli, read-out: MIC
# purified KPC-2 β-lactamase, sequence (Q9F663 25-293 limits assumed): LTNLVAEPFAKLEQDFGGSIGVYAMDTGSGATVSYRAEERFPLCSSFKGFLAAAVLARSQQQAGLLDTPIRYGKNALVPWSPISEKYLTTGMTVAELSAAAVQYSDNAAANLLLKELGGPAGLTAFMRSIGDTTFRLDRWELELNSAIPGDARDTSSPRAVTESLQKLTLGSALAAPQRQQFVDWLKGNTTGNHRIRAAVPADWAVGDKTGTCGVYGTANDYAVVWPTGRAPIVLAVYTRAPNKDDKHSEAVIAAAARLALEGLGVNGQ
Compound,"MIC [1, 14]",MIC ([2]; Escherichia coli),MIC ([3]; Escherichia coli),MIC ([4]; Enterobacter cloacae),MIC ([5]; Enterobacter cloacae),"MIC ([6]; Enterobacter cloacae, read-out: MIC)",MIC [7],MIC [8],MIC [9],MIC [1],"MIC ([2]; E. coli ECM6701, KPC-2, cation-adjusted Mueller-Hinton broth, 35° C.)","MIC ([3]; E. coli ECM6702, KPC-3, cation-adjusted Mueller-Hinton broth, 35° C.)","MIC ([4]; clinical strain ECL1026, Enterobacter cloacae, KPC-2, TEM-1, 35° C.)","MIC ([5]; clinical strain ECL1036, Enterobacter Vcloacae, KPC-3, TEM-1, 35° C.)",MIC [6],MIC [10],MIC [11],MIC [12],"Km ([13]; 50 mM sodium phosphate pH 7.0, 0.1 mg/ml BSA, 37° C., OD 318 nm)",kcat ([13]; kcat=Vmax/[enzyme concentration])
"NC(=O)OC[C@@H]1[C@H](NC(=O)/C(=N\OCC(=O)O)c2csc(N)n2)C(=O)N1S(=O)(=O)O [Carumonam, carumonam]",≤ 0.125 µg/mL,0.25 µg/mL,0.25 µg/mL,2 µg/mL,2 µg/mL,4 µg/mL,2 µg/mL,1 µg/mL,0.5 µg/mL,–,–,–,–,–,–,–,–,–,–,–
"CC1(C)[C@H](NC(=O)/C(=N\OCC(=O)O)c2csc(N)n2)C(=O)N1OS(=O)(=O)O [Tigemonam, tigemonam]",–,–,–,–,–,–,–,–,–,<=0.125 μg/ml,0.25 µg/mL,0.5 µg/mL,4 µg/mL,8 µg/mL,8 µg/mL,8 µg/mL,1 µg/mL,1 µg/mL,678 µM,0.233 s⁻¹
"C[C@H]1[C@H](NC(=O)/C(=N\OC(C)(C)C(=O)O)c2csc(N)n2)C(=O)N1S(=O)(=O)O [Aztreonam, aztreonam]",≤ 0.125 µg/mL,–,–,–,–,–,–,–,–,–,–,–,–,–,–,–,–,–,–,–

# — US20140128364A1, “THERAPEUTIC USES OF TIGEMONAM AND CARUMONAM” (priority 2012, published 2014)
